Experimental findings from EP1268431B1 (Wyeth, priority 2000, dated 2001) are described below.

Several values for one entry are separate records, joined by “and”; a condition that tells them apart may be missing. Equal entries are not always repeated. Where two headings read alike, the source gives them in different places. Bounds are passed on as bounds.

What is called IC50 is the concentration that inhibits the measured activity by half.

The target of one assay is T1, c-Src (Homo sapiens, UniProt P12931).
T1 construct: purchased Upstate Biotechnologies
Kind of assay: c-Src Kinase Assay (ELISA format). In kind it is biochemical. The protocol:
Inhibitors of Src (partially purified preparation purchased from Upstate Biotechnologies) tyrosine kinase activity are analyzed in an ELISA format. […] Horseradish Peroxidase (HRP)-conjugated anti-phosphotyrosine is used to detect phosphorylated peptide via a color reaction. Conditions recommended by the manufacturer are employed.
Reaction conditions: Five microliter aliquots of each compound prepared fresh at the time of the assay are added as a solution in 10mM HEPES pH 7.5, 10% DMSO to the reaction well. Thirty-five microliters of reaction mix containing Src, buffer and peptide/bovine serum albumin mix are added to the compound wells and incubated at 30°C for 10 minutes (reaction buffer: 50mM TrisHCl pH 7.5, 10mM MgCl2, 0.1mM EGTA, 0.5mM Na3VO4). The reaction is started by addition of 10 microliters of ATP, incubated at 30°C for 1 hour, and stopped by addition of 20 microliters of 0.5M EDTA. The reaction mixture with the phosphorylated peptide is then transferred to a streptavidin-coated microtiter plate (provided in the kit) and allowed to bind for 20 minutes. Unbound peptide and reaction mixture is decanted and the plate is washed with PBS six times. HRP-conjugated phosphotyrosine antibody supplied in the kit is incubated with the plate for one hour, then decanted. The plate is again washed with PBS six times.
Activity is determined as % inhibition as calculated by the formula: (1 - Abs/Abs(max)) x 100 = % inhibition.
On the technique in general: In an ELISA, binding on a coated surface is turned into a signal by an enzyme label.

Assay [1] has as its system Rat2 fibroblasts stably transformed with a plasmid containing a CMV promotor controlled v-Src/Hu c-Src fusion gene. Nature of the assay: Anchorage Independent Src-transformed Fibroblast Proliferation Assay.
The mark [2] stands for this setting: Rattus norvegicus, Rat2, 120 h, read-out: anch-indep src-tx fib IC50, suspension growth, MTS on Day 5.
Setting [3] is: read-out: anch-indep src-tx fib IC50, suspension growth, MTS on Day 5.

T1 sequence (P12931 whole entry, species assumed): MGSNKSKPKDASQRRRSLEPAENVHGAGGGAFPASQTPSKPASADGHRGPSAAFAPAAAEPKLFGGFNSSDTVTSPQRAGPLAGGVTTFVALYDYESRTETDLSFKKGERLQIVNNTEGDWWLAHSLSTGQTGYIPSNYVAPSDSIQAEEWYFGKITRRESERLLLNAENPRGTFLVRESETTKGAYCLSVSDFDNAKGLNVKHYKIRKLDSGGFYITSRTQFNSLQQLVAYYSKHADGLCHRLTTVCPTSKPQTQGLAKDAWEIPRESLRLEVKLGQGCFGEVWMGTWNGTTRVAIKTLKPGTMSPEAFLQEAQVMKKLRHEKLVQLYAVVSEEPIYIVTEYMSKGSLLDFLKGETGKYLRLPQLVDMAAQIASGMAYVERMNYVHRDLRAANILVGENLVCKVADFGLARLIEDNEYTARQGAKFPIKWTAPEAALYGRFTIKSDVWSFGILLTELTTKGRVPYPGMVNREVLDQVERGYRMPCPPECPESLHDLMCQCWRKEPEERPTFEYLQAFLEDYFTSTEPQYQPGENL

On to `COc1cc(Nc2c(C#N)cnc3cc(-c4ccc(CN5CCOCC5)cc4)c(OC)cc23)c(Cl)cc1Cl` [Example 37, 4-(2,4-Dichloro-5-methoxyanilino)-6-methoxy-7-[4-(4-molpholinylmethyl)phenyl]-3-quinolinecarbonitrile], for which the IC50 on c-Src was determined as 19 nM; in assay [1] (setting [2]), 1590 nM; in assay [1] (setting [3]), 1490 nM.
The like results for `COc1cc(Nc2c(C#N)cnc3cc(-c4cccc(CCN5CCOCC5)c4)c(OC)cc23)c(Cl)cc1Cl` [Example 38, 4-(2,4-Dichloro-5-methoxyanilino)-6-methoxy-7-{3-[2-(4-morpholinyl)ethyl]phenyl}-3-quinolinecarbonitrile] were, in that order, 81 nM, 12700 nM and 10600 nM.
Regarding `COc1cc(Nc2c(C#N)cnc3cc(-c4ccc(CN5CCC[C@@H]5C(N)=O)o4)ccc23)c(Cl)cc1Cl` [Example 47, (2R)-1-({5-[3-Cyano-4-(2,4-dichloro-5-methoxyanilino)-7-quinolinyl]-2-furyl}methyl)-2-pyrrolidinecarboxamide], the IC50 on c-Src was 1.1 nM; in assay [1] (setting [2]) it was 1170 nM.
Turning to `COc1cc(Nc2c(C#N)cnc3cc(-c4ccc(C5OCCO5)s4)ccc23)c(Cl)cc1Cl` [Example 51, 4-(2,4-Dichloro-5-methoxyanilino)-7-[5-(1,3-dioxolan-2-yl)-2-thienyl]-3-quinolinecarbonitrile], the IC50 on c-Src was 8.2 nM; in assay [1] (setting [2]), 420 nM.
As for `COc1cc(Nc2c(C#N)cnc3cc(-c4ccc(CN5CCOCC5)o4)ccc23)c(Cl)cc1Cl` [Example 53, 4-(2.4-Dichloro-5-methoxyanilino)-7-[5-(4-morpholinylmethyl)-2-furyl]-3-quinolinecarbonitrile], the IC50 is 2.9 nM on c-Src and 250 nM in assay [1] (setting [2]).
On to `COc1ccc(/C=C/c2ccc3c(Nc4cc(OC)c(Cl)cc4Cl)c(C#N)cnc3c2)cc1` [Example 54, 4-(2,4-Dichloro-5-methoxyanilino)-7-[(E)-2-(4-methoxyphenyl)ethenyl]-3-quinolinecarbonitrile], for which the values for the IC50 (against c-Src; in assay [1] (setting [2])) were 62 nM and more than 10000 nM, respectively.
In the case of `COc1cc(Nc2c(C#N)cnc3cc(-c4ccc(CNCCS(=O)(=O)c5ccccc5)o4)ccc23)c(Cl)cc1Cl` [Example 58, 4-(2,4-Dichloro-5-methoxyanilino)-7-[5-({[2-(phenylsulfonyl)ethyl]amino}methyl)-2-furyl]-3-quinolinecarbonitrile], the IC50 on c-Src was 11 nM; in assay [1] (setting [2]), 5100 nM.
With `COc1cc(Nc2c(C#N)cnc3cc(-c4cncn4CCN4CCOCC4)ccc23)c(Cl)cc1Cl` [Example 64, 4-(2,4-Dichloro-5-methoxyanilino)-7-{1-[2-(4-morpholinyl)ethyl]-1H-imidazol-5-yl}-3-quinolinecarbonitrile], the IC50 at c-Src was 950 nM; in assay [1] (setting [2]) it was more than 10000 nM.
With `COc1cc(Nc2c(C#N)cnc3cc(-c4cscc4CN4CCOCC4)ccc23)c(Cl)cc1Cl` [Example 65, 4-(2,4-Dichloro-5-methoxyanilino)-7-[4-(4-morpholinylmethyl)-3-thienyl]-3-quinolinecarbonitrile], the IC50 was 200 nM at c-Src and more than 10000 nM in assay [1] (setting [2]).
For the compound `COc1cc(Nc2c(C#N)cnc3cc(-c4ccsc4CN4CCOCC4)ccc23)c(Cl)cc1Cl` [Example 66, 4-(2.4-Dichloro-5-methoxyanilino)-7-[2-(4-morpholinylmethyl)-3-thienyl]-3-quinolinecarbonitrile], the IC50 against c-Src was 380 nM; in assay [1] (setting [2]), more than 10000 nM.
Turning to `COc1cc(Nc2c(C#N)cnc3cc(-c4ccc(N5CCOCC5)cc4)ccc23)c(Cl)cc1Cl` [Example 67, 4-(2,4-Dichloro-5-methoxyanilino)-7-[4-(4-morpholinyl)phenyl]-3-quinolinecarbonitrile], the IC50 was 3 nM and 4.9 nM at c-Src; 110 nM in assay [1] (setting [2]).
On to `COc1cc(Nc2c(C#N)cnc3cc(-c4ccc(C=O)n4C)ccc23)c(Cl)cc1Cl` [Example 69, 4-(2,4-Dichloro-5-methoxyanilino)-7-(5-formyl-1-methyl-1H-pyrrol-2-yl)-3-quinolinecarbonitrile], for which the IC50 is 110 nM on c-Src and more than 10000 nM in assay [1] (setting [2]).
`COc1cc(Nc2c(C#N)cnc3cc(-c4ccc(CN5CCOCC5)n4C)ccc23)c(Cl)cc1Cl` [Example 70, 4-(2,4-Dichloro-5-methoxyanilino)-7-[1-methyl-5-(4-morpholinylmethyl)-1H-pyrrol-2-yl]-3-quinolinecarbonitrile]: the IC50 is 25 nM against c-Src and 6000 nM in assay [1] (setting [2]).
Turning to `COc1cc(Nc2c(C#N)cnc3cc(-c4ccc(CN5CCN(C)CC5)n4C)ccc23)c(Cl)cc1Cl` [Example 71, 4-(2,4-Dichloro-5-methoxyanilino)-7-{1-methyl-5-[(4-methyl-1-piperazinyl)methyl]-1H-pyrrol-2-yl}-3-quinolinecarbonitrile], the IC50 against c-Src was 26 nM and 24 nM; in assay [1] (setting [2]), 6800 nM.
Regarding `COc1cc(Nc2c(C#N)cnc3cc(-c4ccc(CNCCS(=O)(=O)c5ccccc5)n4C)ccc23)c(Cl)cc1Cl` [Example 72, 4-(2,4-Dichloro-5-methoxyanilino)-7-[1-methyl-5-({[2-(phenylsulfonyl)ethyl]amino}methyl)-1H-pyrrol-2-yl]-3-quinolinecarbonitrile], the IC50 is 78 nM on c-Src and more than 10000 nM in assay [1] (setting [2]).
`COc1cc(Nc2c(C#N)cnc3cc(-c4ccc(CNCCS(C)(=O)=O)n4C)ccc23)c(Cl)cc1Cl` [Example 73, 4-(2,4-Dichloro-5-methoxyanilino)-7-[1-methyl-5-({[2-(methylsulfonyl)ethyl]amino}methyl)-1H-pyrrol-2-yl]-3-quinolinecarbonitrile]: the IC50 was 58 nM and 75 nM at c-Src; more than 10000 nM in assay [1] (setting [2]).
For the compound `COc1cc(Nc2c(C#N)cnc3cc(-c4ccc(CNCCc5ccccn5)o4)ccc23)c(Cl)cc1Cl` [Example 74], the results for the IC50 (at c-Src; in assay [1] (setting [3])) were 40 nM and 1400 nM, respectively.
With `COc1cc(Nc2c(C#N)cnc3cc(-c4ccc(CN5CCN(CCO)CC5)o4)ccc23)c(Cl)cc1Cl` [Example 75, 4-(2,4-Dichloro-5-methoxyanilino)-7-(5-{[4-(2-hydroxyethyl)-1-piperazinyl]methyl}-2-furyl)-3-quinolinecarbonitrile], the results for the 50% inhibitory concentration (IC50) (against c-Src; in assay [1] (setting [2])) were 24 nM and 290 nM, respectively.
As for `COc1cc(Nc2c(C#N)cnc3cc(-c4ccc(CN(CCO)CCO)o4)ccc23)c(Cl)cc1Cl` [Example 76, 7-(5-{[Bis(2-hydroxyethyl)amino]methyl}-2-furyl)-4-(2,4-dichloro-5-methoxyanilino)-3-quinolinecarbonitrile], the results for the IC50 (at c-Src; in assay [1] (setting [2])) were 22 nM and 1100 nM, respectively.
For `COc1cc(Nc2c(C#N)cnc3cc(-c4ccc(CNCCS(C)(=O)=O)o4)ccc23)c(Cl)cc1Cl` [Example 77, 4-(2,4-Dichloro-5-methoxyanilino)-7-[5-({[2-(methylsulfonyl)ethyl]amino}methyl)-2-furyl]-3-quinolinecarbonitrile], in that order: 21 nM and 420 nM.
In the case of `COc1cc(Nc2c(C#N)cnc3cc(-c4ccc(CN5CCCCC5)s4)ccc23)c(Cl)cc1Cl` [Example 78, 4-(2,4-Dichloro-5-methoxyanilino)-7-[5-(1-piperidinylmethyl)-2-thienyl]-3-quinolinecarbonitrile], the IC50 against c-Src is 1.3 nM; in assay [1] (setting [2]), 140 nM.
Regarding `COc1cc(Nc2c(C#N)cnc3cc(-c4csc(CN5CCOCC5)c4)ccc23)c(Cl)cc1F` [Example 79, 4-(2-chloro-4-fluoro-5-methoxyanilino)-7-[5-(4-morpholinylmethyl)-3-thienyl]-3-quinolinecarbonitrile], the IC50 is 1.7 nM at c-Src and 130 nM in assay [1] (setting [2]).
In the case of `COc1cc(Nc2c(C#N)cnc3cc(-c4csc(CN5CCOCC5)c4)ccc23)c(Cl)cc1C` [Example 80, 4-{2-Chloro-5-methoxy-4-methylanilino)-7-[5-(4-morpholinylmethyl)-3-thienyl]-3-quinolinecarbonitrile], the IC50 at c-Src stood at 1.5 nM; in assay [1] (setting [2]), 80 nM.
Consider `COc1cc(Nc2c(C#N)cnc3cc(-c4cc(CN5CCOCC5)c(CN5CCOCC5)s4)c(OC)cc23)c(Cl)cc1Cl` [Example 82, 7-[4,5-Bis(4-morpholinylmethyl)-2-thienyl]-4-(2,4-dichloro-5-methoxyanilino)-6-methoxy-3-quinolinecarbonitrile], for which the IC50 on c-Src is 0.48 nM; in assay [1] (setting [2]), 50 nM.
`COc1cc(Nc2c(C#N)cnc3cc(-c4ccc(C=O)cc4)ccc23)c(Cl)cc1Cl` [Example 83, 4-(2.4-Dichloro-5-methoxyanilino)-7-(4-formylphenyl)-3-quinolinecarbonitrile]: the concentration for half-maximal inhibition (IC50) on c-Src was determined as 42 nM; in assay [1] (setting [2]), 3900 nM.
Consider `COc1cc(Nc2c(C#N)cnc3cc(-c4ccc(CNCCS(=O)(=O)c5ccccc5)cc4)ccc23)c(Cl)cc1Cl` [Example 85, 4-(2,4-Dichloro-5-methoxyanilino)-7-[4-({[2-(phenylsulfonyl)ethyl]amino}methyl)phenyl]-3-quinolinecarbonitrile], for which the IC50 against c-Src was 36 nM and 41 nM; in assay [1] (setting [2]), 10200 nM.
